# Patent US20250270200A1, “CTPS1 INHIBITORS AND USES THEREOF” (Nimbus Clotho, Inc., priority 2022, published 2025)
# Target: T1, human CTPS1 (Homo sapiens, UniProt P17812)
# T1 sequence (P17812 1-591): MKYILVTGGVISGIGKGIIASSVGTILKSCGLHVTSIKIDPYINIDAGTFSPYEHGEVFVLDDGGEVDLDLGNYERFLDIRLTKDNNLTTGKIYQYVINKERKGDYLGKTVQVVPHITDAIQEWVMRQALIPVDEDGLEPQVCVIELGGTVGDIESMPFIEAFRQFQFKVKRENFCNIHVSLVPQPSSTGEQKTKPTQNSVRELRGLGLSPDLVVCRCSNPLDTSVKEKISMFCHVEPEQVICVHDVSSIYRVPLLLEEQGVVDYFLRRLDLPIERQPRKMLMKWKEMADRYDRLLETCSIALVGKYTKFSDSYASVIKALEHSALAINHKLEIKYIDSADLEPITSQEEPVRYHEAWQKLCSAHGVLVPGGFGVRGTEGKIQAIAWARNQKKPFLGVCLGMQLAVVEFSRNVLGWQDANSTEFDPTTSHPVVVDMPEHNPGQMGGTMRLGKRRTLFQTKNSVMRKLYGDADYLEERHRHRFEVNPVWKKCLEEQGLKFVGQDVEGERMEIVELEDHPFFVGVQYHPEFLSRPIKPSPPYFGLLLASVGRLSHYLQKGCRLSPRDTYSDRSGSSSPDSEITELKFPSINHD
# Test: ADP-Glo assay, human CTPS1 enzyme inhibition
# Type: biochemical
# Conditions: wild-type human CTPS1 25 nM; ATP 120 μM, UTP 160 μM, GTP 60 μM, L-glutamine 100 μM; 25 degrees C.; read-out: ADP-Glo_WT_hCTPS1—25 nM_IC50 (IC50)
# Procedure, shortened: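 ADP-Glo luminescence quantified ADP produced by 25 nM purified human CTPS1 (full length, FLAG-His tagged) at 25° C within the linear phase. Final substrates: ATP 120 μM, UTP 160 μM, GTP 60 μM, L-glutamine 100 μM; 1% DMSO; pH 7.4 HEPES buffer with Mg2+, KCl, DTT. Compound pre-incubated with enzyme 10 min, then with ATP/UTP 10 min.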
row,IC50,SMILES
1,5 to 25 nM,"COC[C@H](NC(=O)c1ncc(-c2cnn3ccc(Cl)cc23)s1)c1nccc(NS(=O)(=O)C2CC2)n1 (single isomer, unassigned) [II-9]"

# Same assay, conditions: wild-type human CTPS1, 25 nM enzyme; ADP-Glo; read-out: ADP-Glo_WT_hCTPS1—25 nM_IC50 (IC50)
row,IC50,SMILES
1,5 to 25 nM,"CCOc1cncc(-c2cnc(C(=O)N[C@H](c3cc(NS(=O)(=O)C4CC4)ccn3)[C@@H]3CCCO3)s2)n1 [I-60, N-((R)-(4-(cyclopropanesulfonamido)pyridin-2-yl)((S)-tetrahydrofuran-2-yl)methyl)-5-(6-ethoxypyrazin-2-yl)thiazole-2-carboxamide]"
2,5 to 25 nM,"CCOc1cncc(-c2cnc(C(=O)N[C@@H](c3cc(NS(=O)(=O)C4CC4)ccn3)C(C)(C)CN(C)C)s2)n1 [I-43, (R)-N-(1-(4-(cyclopropanesulfonamido)pyridin-2-yl)-3-(dimethylamino)-2,2-dimethylpropyl)-5-(6-ethoxypyrazin-2-yl)thiazole-2-carboxamide]"
3,50 to 100 nM,"CCOc1cncc(-c2cnc(C(=O)N(C)[C@@H](CN3CCOCC3)c3cc(NS(=O)(=O)C4CC4)ccn3)s2)n1 [I-141, (S)-N-(1-(4-(cyclopropanesulfonamido)pyridin-2-yl)-2-morpholinoethyl)-5-(6-ethoxypyrazin-2-yl)-N-methylthiazole-2-carboxamide]"
4,50 to 100 nM,"CCOc1cncc(-c2cnc(C(=O)N[C@@H](CN3C[C@H]4CC[C@@H]3CO4)c3cc(NS(=O)(=O)C4CC4)ccn3)s2)n1 [I-123, N-((S)-2-((1R,4R)-2-oxa-5-azabicyclo[2.2.2]octan-5-yl)-1-(4-(cyclopropanesulfonamido)pyridin-2-yl)ethyl)-5-(6-ethoxypyrazin-2-yl)thiazole-2-carboxamide]"
5,≤ 5 nM,"CCOc1cncc(-c2cnc(C(=O)N[C@@H](c3cc(NS(=O)(=O)C4CC4)ccn3)[C@H]3C[C@H]4CC[C@@H]3O4)s2)n1 [I-84, N-((R)-((1S,2R,4R)-7-oxabicyclo[2.2.1]heptan-2-yl)(4-(cyclopropanesulfonamido)pyridin-2-yl)methyl)-5-(6-ethoxypyrazin-2-yl)thiazole-2-carboxamide]"
6,25 to 50 nM,"CCOc1cncc(-c2cnc(C(=O)N[C@@H](c3cc(NS(=O)(=O)C4CC4)ccn3)C(C)(C)O)s2)n1 [I-275, (S)-N-(1-(4-(cyclopropanesulfonamido)pyridin-2-yl)-2-hydroxy-2-methylpropyl)-5-(6-ethoxypyrazin-2-yl)thiazole-2-carboxamide]"
7,≤ 5 nM,"CCOc1cncc(-c2cnc(C(=O)N[C@H](c3cc(NS(=O)(=O)C4CC4)ccn3)[C@@H]3C[C@@H]4CC[C@H]3O4)s2)n1 [I-82, N-((S)-((1R,2S,4S)-7-oxabicyclo[2.2.1]heptan-2-yl)(4-(cyclopropanesulfonamido)pyridin-2-yl)methyl)-5-(6-ethoxypyrazin-2-yl)thiazole-2-carboxamide]"
8,5 to 25 nM,"CCOc1cncc(-c2cnc(C(=O)N[C@H](c3cc(NS(=O)(=O)C4CC4)ccn3)[C@@H](C)O)s2)n1 [I-264, N-((1R,2R)-1-(4-(cyclopropanesulfonamido)pyridin-2-yl)-2-hydroxypropyl)-5-(6-ethoxypyrazin-2-yl)thiazole-2-carboxamide]"
9,5 to 25 nM,"CCOc1cncc(-c2ccc(C(=O)N[C@H](CN3CCOCC3)c3cc(NS(=O)(=O)C4CC4)ccn3)c(F)c2)n1 [I-144, (R)-N-(1-(4-(cyclopropanesulfonamido)pyridin-2-yl)-2-morpholinoethyl)-4-(6-ethoxypyrazin-2-yl)-2-fluorobenzamide]"
10,≤ 5 nM,"CCOc1cncc(-c2cnc(C(=O)N[C@H](CN3CCOC[C@@H]3C)c3cc(NS(=O)(=O)C4CC4)ccn3)s2)n1 (single isomer, unassigned) [I-35]"
11,25 to 50 nM,"CCOc1cncc(-c2cnc(C(=O)N[C@@H](CN3CCCC3)c3cc(NS(=O)(=O)C4CC4)ncn3)s2)n1 [I-250, (S)-N-(1-(6-(cyclopropanesulfonamido)pyrimidin-4-yl)-2-(pyrrolidin-1-yl)ethyl)-5-(6-ethoxypyrazin-2-yl)thiazole-2-carboxamide]"
12,5 to 25 nM,"CCOc1cncc(-c2cnc(C(=O)NC(c3cc(NS(=O)(=O)C4CC4)ccn3)C3CN(C)CCO3)s2)n1 (single isomer, unassigned) [I-105, N-((4-(cyclopropanesulfonamido)pyridin-2-yl)(4-methylmorpholin-2-yl)methyl)-5-(6-ethoxypyrazin-2-yl)thiazole-2-carboxamide]"
13,5 to 25 nM,"CCOc1cncc(-c2cnc(C(=O)N[C@@H](CN3CCCOCC3)c3cc(NS(=O)(=O)C4CC4)ccn3)s2)n1 [I-134, (S)-N-(1-(4-(cyclopropanesulfonamido)pyridin-2-yl)-2-(1,4-oxazepan-4-yl)ethyl)-5-(6-ethoxypyrazin-2-yl)thiazole-2-carboxamide]"
14,5 to 25 nM,"O=C(N[C@H](CCN1CCCCC1)c1cc(NS(=O)(=O)C2CC2)ccn1)c1ncc(-c2cnn3ccc(Cl)cc23)s1 (single isomer, unassigned) [I-10]"
15,5 to 25 nM,"CCOc1cncc(-c2cnc(C(=O)N[C@@H](CN3C[C@H]4C[C@@H]3CO4)c3cccc(NS(=O)(=O)C(F)F)c3)s2)n1 [I-204, N-((R)-2-((1R,4R)-2-oxa-5-azabicyclo[2.2.1]heptan-5-yl)-1-(3-((difluoromethyl)sulfonamido)phenyl)ethyl)-5-(6-ethoxypyrazin-2-yl)thiazole-2-carboxamide]"
16,5 to 25 nM,"CCOc1cncc(-c2cnc(C(=O)N[C@H](Cn3nccn3)c3cc(NS(=O)(=O)C4CC4)ccn3)s2)n1 [I-158, (R)-N-(1-(4-(cyclopropanesulfonamido)pyridin-2-yl)-2-(2H-1,2,3-triazol-2-yl)ethyl)-5-(6-ethoxypyrazin-2-yl)thiazole-2-carboxamide]"
17,5 to 25 nM,"CCOc1cncc(-c2cnc(C(=O)N[C@@H](Cn3ccnn3)c3cccc(NS(=O)(=O)C(F)F)c3)s2)n1 [I-214, (R)-N-(1-(3-((difluoromethyl)sulfonamido)phenyl)-2-(1H-1,2,3-triazol-1-yl)ethyl)-5-(6-ethoxypyrazin-2-yl)thiazole-2-carboxamide]"
18,> 100 nM,"CCOc1cncc(-c2cnc(C(=O)NC(C[C@@H]3COCCN3C)c3cc(NS(=O)(=O)C4CC4)ccn3)s2)n1 (single isomer, unassigned) [I-103]"
19,5 to 25 nM,"CCOc1cncc(-c2cnc(C(=O)N[C@H](CN3C[C@H]4CC[C@@H]3C4)c3cc(NS(=O)(=O)C4CC4)ccn3)s2)n1 [I-150, N-((R)-2-((1R,4S)-2-azabicyclo[2.2.1]heptan-2-yl)-1-(4-(cyclopropanesulfonamido)pyridin-2-yl)ethyl)-5-(6-ethoxypyrazin-2-yl)thiazole-2-carboxamide]"
20,5 to 25 nM,"CCOc1cncc(-c2cnc(C(=O)N[C@@H](CN3CCN(C)C(=O)C3)c3cc(NS(=O)(=O)C4CC4)ccn3)s2)n1 [I-147, (S)-N-(1-(4-(cyclopropanesulfonamido)pyridin-2-yl)-2-(4-methyl-3-oxopiperazin-1-yl)ethyl)-5-(6-ethoxypyrazin-2-yl)thiazole-2-carboxamide]"
21,5 to 25 nM,"CCOc1cncc(-c2cnc(C(=O)N[C@@H](CN3CCOCC3)c3cc(NS(=O)(=O)C4CC4)ncn3)s2)n1 (single isomer, unassigned) [I-247]"
22,5 to 25 nM,"CCOc1cncc(-c2cnc(C(=O)N[C@@H](Cn3ccccc3=O)c3cc(NS(=O)(=O)C4CC4)ccn3)s2)n1 [I-140, (S)-N-(1-(4-(cyclopropanesulfonamido)pyridin-2-yl)-2-(2-oxopyridin-1(2H)-yl)ethyl)-5-(6-ethoxypyrazin-2-yl)thiazole-2-carboxamide]"
23,≤ 5 nM,"CCOc1cncc(-c2cnc(C(=O)N[C@@H](c3cc(NS(=O)(=O)C4CC4)ccn3)[C@@H]3C[C@@H]4CC[C@H]3O4)s2)n1 [I-81, N-((R)-((1R,2S,4S)-7-oxabicyclo[2.2.1]heptan-2-yl)(4-(cyclopropanesulfonamido)pyridin-2-yl)methyl)-5-(6-ethoxypyrazin-2-yl)thiazole-2-carboxamide]"
24,50 to 100 nM,"CCOc1cncc(-c2cnc(C(=O)N[C@@H](CCN3CCC(F)CC3)c3cc(NS(=O)(=O)C4CC4)ccn3)s2)n1 (single isomer, unassigned) [I-15]"
25,25 to 50 nM,"CCOc1cncc(-c2cnc(C(=O)N[C@H](Cn3ccccc3=O)c3cc(NS(=O)(=O)C4CC4)ccn3)s2)n1 [I-139, (R)-N-(1-(4-(cyclopropanesulfonamido)pyridin-2-yl)-2-(2-oxopyridin-1(2H)-yl)ethyl)-5-(6-ethoxypyrazin-2-yl)thiazole-2-carboxamide]"
26,50 to 100 nM,"CCOc1cncc(-c2ccc(C(=O)N[C@H](COC)c3cc(NS(=O)(=O)C4CC4)ccn3)c(F)c2)n1 [I-283, (S)-N-(1-(4-(cyclopropanesulfonamido)pyridin-2-yl)-2-methoxyethyl)-4-(6-ethoxypyrazin-2-yl)-2-fluorobenzamide]"
